Measured values: US9056108B2, “Method of treating atrial fibrillation” (Gilead Sciences, Inc., priority 2009, dated 2015)

Assays:
[1] = system: isolated canine coronary-perfused right atria; assay: Electrophysiology in isolated coronary-perfused canine right atrial preparations; conditions: for Shortest S1-S1 (shortest CL permitting 1:1 activation) / APD90 / ERP: ranolazine 5 μM, dronedarone 10 μM; for APD90 / ERP: pectinate muscle, CL of 500 ms
Protocol: Experiments were performed using isolated coronary-perfused canine right atrial (RA) and left ventricular (LV) preparations (≈3×1.5×1 cm). Isolation and perfusion of the preparations were as previously described.^9, 15, 16 Briefly, preparations were dissected from hearts removed from anesthetized (sodium pentobarbital) adult mongrel dogs (20-30 kg). Unfolded RA with attached rim of the right ventricle was cannulated and perfused with cold cardioplegic solution (4-8° C.) through the ostium of the right coronary artery; the LV wedge was perfused through a diagonal branch of the left anterior descending coronary artery. Unperfused tissue was removed with a razor blade. Cut ventricular and atrial branches were ligated using silk thread. The preparations were then transferred to a temperature-controlled bath and arterially-perfused with Tyrode's solution by use of a roller pump. The composition of the Tyrode's solution was (in mM): NaCl 129, KCl 4, NaH2PO4 0.9, NaHCO3 20, CaCl2 1.8, MgSO4 0.5, and D-glucose 5.5, buffered with 95% O2 and 5% CO2 (37±0.5° C., pH=7.35)
Transmembrane action potential (AP) recordings were obtained using floating glass microelectrodes at a sampling rate of 40 kHz. A pseudo-electrocardiogram (ECG) was recorded using two electrodes consisting of Ag/AgCl half cells placed in the Tyrode's solution bathing the preparation, 1.0 to 1.5 cm from the two opposite sides of the atrial or ventricular coronary-perfused preparations. Conduction time was approximated by the duration of “P wave” in atria and “QRS complex” in ventricles, at a level representing 10% of “P wave” and “QRS” amplitude. Diastolic threshold of excitation (DTE) was determined by increasing stimulus intensity in 0.01 mA steps. Effective refractory period (ERP) was measured by delivering premature stimuli at progressively shorter S1-S2 intervals after every 10 basic beats at a pacing cycle length (CL) of 500 ms (5 ms steps; 2 times DTE). Post-repolarization refractoriness (PRR) was recognized when ERP exceeded action potential duration measured at 90% repolarization (APD90) in the ventricle and APD measured at 70% repolarization (APD70) in atria. Ventricular ERP was coincident with APD90, whereas atrial ERP was generally coincident with APD70-75.^9 The shortest S1-S1 permitting 1:1 activation was measured by progressively shortening pacing CL starting from a CL of 500 ms.
Stable AP recordings could not be readily obtained in the vigorously contracting perfused preparations. The largest recorded maximum rate of rise of the AP upstroke (Vmax) values per experimental condition were taken for statistical comparison. Only APs having amplitudes of at least 100 mV were considered in the analysis. The largest Vmax criterion was used because this was associated with the largest amplitude and the most negative resting membrane potential, depicting full or near full impalement. In determining use-dependent depression of Vmax, values were normalized to the Vmax value at a CL of 500 ms for each experiment and then averaged.
Because of their dependence on peak INa, Vmax, DTE, PRR, and conduction time as well the shortest S1-S1 interval permitting 1:1 activation are referred to as INa-dependent parameters.
The equilibration period for the coronary-perfused preparations was 30-120 min. The preparations were exposed to 5 μM ranolazine, 10 μM dronedarone (after 30 min washout of ranolazine), and the combination of these agents for at a period of at least 20 min. In time-control experiments, 20 minutes was sufficient to achieve steady-state in the effects of each of the drugs to alter electrophysiologic parameters. Recordings were obtained at a cycle length (CL) of 500 and 300 ms, unless otherwise indicated. […] When determining the shortest S1-S1 pacing rate permitting 1:1 activation, the stimulation intensity was DTE x 2, determined at a CL of 500 ms.

[2] = system: ACh-mediated persistent AF in isolated canine coronary-perfused right atria; assay: Acetylcholine (ACh)-mediated persistent AF model in coronary-perfused right atria; conditions: for Termination Persistent AF: ACh 1 μM-mediated persistent AF; for Prevention of AF re-induction: after termination of ACh-mediated AF; for Reduction/suppression of persistent AF: canine perfused right atrial preparations; for Induction of Persistent AF: in presence of ACh 1 μM
Protocol: To assess the anti-AF potential of ranolazine, dronedarone, and their combination, we used an acetylcholine (ACh, 1.0 μM)-mediated AF model. In the presence of ACh, premature electrical stimulation (PES) or rapid pacing (CL=50-80 ms) induces persistent AF in 100% of canine coronary-perfused right atrial preparations.^9 The effect of the drugs was assessed to prevent (series 1) the induction of AF. In a separate set of preparations, the ability of these agents was evaluated to terminate (series 2) persistent AF. In the first series, ACh was added to the perfusate 20-30 min after the start of perfusion with 5 μM ranolazine, 10 μM dronedarone, or the combination of these agents. This was followed by attempts to induce the arrhythmia electrically. In the second series, the agents were added to the perfusate during ACh-mediated persistent AF (on the 5-6th minutes after the start of the arrhythmia). In cases in which the drug terminated AF, we attempted to re-induce the arrhythmia with rapid pacing.

[3] = system: canine pulmonary vein (PV) sleeve preparations; assay: Superfused pulmonary vein (PV) sleeve preparations; conditions: ranolazine 5 μM; for Reduction in Vmax following change of rate: CL 5000 to 300 ms, dronedarone 10 μM (control 13%); for Diastolic threshold of excitation (DTE): CL of 300 ms, from 0.21±0.07; for Diastolic threshold of excitation (DTE) / Shortest pacing CL permitting a 1:1 response: dronedarone 10 μM; for Shortest pacing CL permitting a 1:1 response: untreated controls 116±8
Protocol: Pulmonary vein (PV) sleeve preparations (approximately 2.0×1.5 cm) were isolated from left canine atria. The thickness of the preparation was approximately 2 mm. […] The preparations were placed in a small tissue bath and superfused with Tyrode's solution of the following composition (mM): 129 NaCl, 4 KCl, 0.9 NaH2PO4, 20 NaHCO3, 1.8 CaCl2, 0.5 MgSO4, 5.5 glucose, buffered with 95% O2/5% CO2 (35±0.5° C.). The PV preparations were stimulated at a basic cycle length (BCL) of 1000 ms during the equilibration period (1 h) using electrical pulses (1-3 ms duration, 2.5 times diastolic threshold intensity) delivered through silver bipolar electrodes insulated except at the tips. Transmembrane potentials were recorded (at a sampling rate of 40 kHz) using glass microelectrodes filled with 3 M KCl (10-20 MΩ DC resistance) connected to a high input-impedance amplification system (World Precision Instruments, model KS-700, New Haven, Conn.). The following parameters were measured: DTE, Vmax, and shortest S1-S1 permitting 1:1 activation. Acetylcholine (ACh, 1 μM), isoproterenol (1 μM), high calcium or their combination were used to induce late phase 3 EADs, DADs and triggered activity.

[4] = system: ACh-mediated persistent AF in isolated canine coronary-perfused right atria; assay: Acetylcholine (ACh)-mediated persistent AF model in coronary-perfused right atria; conditions: ranolazine 5 μM, dronedarone 10 μM; without ACh
[5] = in vivo; cited from earlier work
[6] = 2x threshold stimulus intensity, without ACh, in ms (unit assumed)
[7] = ranolazine 5 μM, dronedarone 10 μM

SMILES	Shortest S1-S1 (shortest CL permitting 1:1 activation) [1, 6]	Shortest S1-S1 (shortest CL permitting 1:1 activation) ([1]; in presence of ACh 1 μM)	APD90 ([1]; in presence of ACh 1 μM) [ms]	ERP ([1]; in presence of ACh 1 μM) [ms]	APD90 ([1]; without ACh) [ms]	ERP ([1]; without ACh) [ms]	Termination Persistent AF [2, 7] [%]	Prevention of AF re-induction [2, 7] [%]	Reduction/suppression of persistent AF [2] [%]	Induction of Persistent AF [2, 7] [%]	Prevention of induction of sustained/persistent AF (atria) ([2]; pretreatment, then ACh 1 μM, ranolazine 5 μM, dronedarone 10 μM)	Reduction in Vmax following change of rate [3] [%]	Diastolic threshold of excitation (DTE) [3] [mA]	Shortest pacing CL permitting a 1:1 response [3] [ms]	Induction of Persistent AF [4] [%]	Prolongation of atrial ERP ([1]; current in vitro investigation) [%]	Half-life of elimination [5]
COc1ccccc1OCC(O)CN1CCN(CC(=O)Nc2c(C)cccc2C)CC1 (racemic) [Ranolazine, (±)-N-(2,6-dimethylphenyl)-4-[2-hydroxy-3-(2-methoxyphenoxy)-propyl]-1-piperazineacetamide]	201 ± 22	94 ± 11	52 ± 6	72 ± 13	210 ± 10	181 ± 11	20	100	29	71	2/7	19	0.24±0.09	121 ± 13	0	–	–
CCCCc1oc2ccc(NS(C)(=O)=O)cc2c1C(=O)c1ccc(OCCCN(CCCC)CCCC)cc1 [Dronedarone, N-(2-Butyl-3-(p-(3-(dibutylamino)propoxy)benzoyl)-5-benzofuranyl)methanesulfonamide]	147 ± 11	88 ± 13	45 ± 5	59 ± 7	202 ± 9	171 ± 11	17	0	17	83	–	20	0.26±0.09	120 ± 12	0	9	about 24 hours
